{
  "source": "patent US12466782B2",
  "about": "“Arylcyclohexylamine derivatives and process for preparing same” (Technische Hochschule Köln, priority 2020, dated 2025)",
  "origin": "cited, not measured here",
  "conditions": "mouse model",
  "data": [
    {"smiles": "NC1(c2ccccc2Cl)CCCC(O)C1=O", "note": "(stereo not shown) [6-hydroxynorketamine]", "values": [
      {"measurement": "dose at which an effect comparable to that of 10 mg/kg ketamine was observed", "value": "≥ 25", "unit": "mg/kg"}
    ]}
  ]
}
